Laboratory results reported in PMC6207618, “The GbsR Family of Transcriptional Regulators: Functional Characterization of the OpuAR Repressor” (Frontiers in Microbiology, 2018).
Like-named read-outs stand apart in the source and are kept apart here.

Tests used:
OpuAR Y^94F/R^100F = OpuAR Y^94F/R^100F (Bacillus infantis, UniProt U5LJR5, R100F/Y94F); experiment: biochemical; format: binding; conditions: for Improvement of binding (Kd) relative to wild-type OpuAR: OpuAR double variant Y94F/R100F vs wild type
Sequence of OpuAR Y^94F/R^100F (U5LJR5 entry or part of it Y94F/R100F): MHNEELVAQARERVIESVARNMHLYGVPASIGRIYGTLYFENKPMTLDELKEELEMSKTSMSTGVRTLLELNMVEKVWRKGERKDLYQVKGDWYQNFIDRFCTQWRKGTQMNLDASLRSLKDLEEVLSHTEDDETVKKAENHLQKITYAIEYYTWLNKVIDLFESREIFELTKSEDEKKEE
Text: (§1) The coding region of opuAR was amplified from chromosomal DNA of B. infantis NRRL B-14911 ([Massilamany et al., 2016]) using primers opuAR fwd and opuAR rev (Supplementary Table S2) harboring in their 5′-regions recognition sites for the restriction enzyme BsaI. The resulting PCR DNA fragment was then cut with BsaI and cloned into the expression vector pASK-IBA3plus (IBA, Göttingen, Germany) that had been linearized with BsaI; the obtained plasmids were named pMP_AR1 (Supplementary Table S3). Mutant derivatives of the opuAR gene were obtained using the Q5 Site-Directed Mutagenesis Kit (New England BioLabs, Ipswich, MA, United States) and a set of customized mutagenic primers (Supplementary Table S2). The Sanger sequencing method was used to verify the DNA sequence of the chromosomal insert of the parental opuAR^+ overexpression plasmid pMP_AR1 and of its derivatives carrying mutant opuAR genes. DNA sequencing was conducted by Microsynth (Lindau, Germany).
(§2) Overproduction of the OpuAR repressor protein and its mutant derivatives was carried out in the E. coli B strain BL21 harboring plasmid pMP_AR1, a derivative of the expression vector pASK-IBA3plus (IBA, Göttingen, Germany) (Supplementary Table S3). […] De-repression of P-tet promoter activity is achieved by adding the synthetic inducer AHT to the growth medium. Cultures of the E. coli B. strain BL21 (pMP_AR1) were inoculated (to a OD578 of 0.1) from pre-cultures prepared in MMA ([Miller, 1972]) supplemented with 0.5% glucose (wt/vol) as the carbon source, 0.5% casamino acids (wt/vol), 1 mg l^-1 thiamine, and 1 mM MgSO4. The cultures also contained ampicillin (100 μg ml^-1) to select for the presence of plasmid pMP_AR1 (or its mutant derivatives) and they were grown at 37°C. When the main cultures reached an OD578 of 0.5, enhanced expression of the opuAR gene from P-tet was induced by the addition of AHT to a final concentration of 0.2-μg ml^-1. Cells were grown for an additional 2 h, before they were harvested by centrifugation (at 4°C at 4,800 × g for 20 min). The cell pellets were re-suspended in lysis buffer [100 mM Tris-HCl (pH 7.5), 2.5% glycerol, 2 mM dithiothreitol, 0.4 mM EDTA, 0.5 mM phenylmethylsulfonyl fluoride (PMSF), 0.5 mM benzamidine] and the cells were then disrupted by passing them through a French pressure cell as detailed previously ([Nau-Wagner et al., 2012]). Cleared cell lysates were prepared by ultra-centrifugation (at 4°C at 100,000 × g for 35 min) before the OpuAR-Strep-tag II recombinant protein was purified by affinity chromatography ([Nau-Wagner et al., 2012]) on streptactin affinity resin according to the manufacturers specifications (IBA, Göttingen, Germany). Mutant derivatives of the OpuAR protein were overproduced and purified as described above for the wild-type protein.
(§3) The dissociation constants of OpuAR for choline and glycine betaine were determined by intrinsic tryptophan fluorescence spectroscopy as described previously using a Carry Eclips fluorescence spectrometer (Varian, Surry, United Kingdom) ([Pittelkow et al., 2011]; [Nau-Wagner et al., 2012]).

OpuAR R^100F = OpuAR R^100F (Bacillus infantis, UniProt U5LJR5, R100F); experiment: biochemical; format: binding
Sequence of OpuAR R^100F (U5LJR5 entry or part of it R100F): as the sequence (U5LJR5 entry or part of it Y94F/R100F) above
Text: as §1, §2, §3

OpuAR Y^94F = OpuAR Y^94F (Bacillus infantis, UniProt U5LJR5, Y94F); experiment: biochemical; format: binding
Sequence of OpuAR Y^94F (U5LJR5 entry or part of it Y94F): as the sequence (U5LJR5 entry or part of it Y94F/R100F) above
Text: as §1, §2, §3

OpuAR N^96F = OpuAR N^96F (Bacillus infantis, UniProt U5LJR5, N96F); experiment: biochemical; format: binding
Sequence of OpuAR N^96F (U5LJR5 entry or part of it N96F): as the sequence (U5LJR5 entry or part of it Y94F/R100F) above
Text: as §1, §2, §3

OpuAR W^93F = OpuAR W^93F (Bacillus infantis, UniProt U5LJR5, W93F); experiment: biochemical; format: binding
Sequence of OpuAR W^93F (U5LJR5 entry or part of it W93F): as the sequence (U5LJR5 entry or part of it Y94F/R100F) above
Text: as §1, §2, §3

[1] = tested on: opuAA-treA reporter activity; experiment: opuAA-treA reporter fusion TreA enzyme activity assay; format: cell-based, Bacillus subtilis; conditions: strain STHB10, SMM with 1.2 M NaCl, dose-response 5 to 300 μM
B. infantis NRRL B-14911 = experiment: Growth of B. infantis with glycine betaine as sole carbon source; format: cell-based, Bacillus infantis; conditions: basal medium, 33.24 mM as sole carbon source, 46 h, 37°C
Protocol: Supplementary Figure S7 │B. infantis cannot use glycine betaine as carbon source.
Cultures of B. infantis NRRL B-14911were grown in basal medium supplemented with either glucose (27.7 mM final concentration) or glycine betaine (33.24 mM final concentration) as the sole carbon source. Growth yields were measured after 46 hours of incubation at 37 °C.
Cultures without the addition of a carbon source served as control.
(1 picture or pasted object on this page, not shown here)

SMILES	Kd (OpuAR Y^94F/R^100F)	Improvement of binding (Kd) relative to wild-type OpuAR (OpuAR Y^94F/R^100F)	Kd (OpuAR R^100F)	Kd (OpuAR Y^94F)	Kd (OpuAR N^96F)	Kd (OpuAR W^93F)	Concentration in growth medium triggering a noticeable increase in transcriptional activity [1]	Concentration sufficient to fully induce expression of the reporter fusion [1]	Kd (OpuAR Y^94F/R^100F; OpuAR double variant Y94F/R100F, read-out: Kd)	Kd (OpuAR R^100F; OpuAR variant R100F, read-out: Kd)	Kd (OpuAR Y^94F; OpuAR variant Y94F, read-out: Kd)	Kd (OpuAR N^96F; OpuAR variant N96F, read-out: Kd)	Kd (OpuAR W^93F; OpuAR variant W93F, read-out: Kd)	Use as carbon source / nutrient (growth yield) (B. infantis NRRL B-14911)
C[N+](C)(C)CCO [choline]	61 ± 11 µM	about threefold	100 ± 15 µM	240 ± 33 µM	262 ± 34 µM	210 ± 33 µM	–	–	–	–	–	–	–	–
C[N+](C)(C)CC(=O)[O-] [glycine betaine]	–	fourfold	–	–	–	–	5 µM	75 µM	70 ± 12 µM	303 ± 40 µM	293 ± 37 µM	254 ± 39 µM	224 ± 24 µM	cannot use
